Results: patent EP2311482A1, “Osteogenic synthetic BMP-7 peptides, pharmaceutical compositions cell culture medium containing same” (Industry Foundation Of Chonnam National University, priority 2009, dated 2011)
No end group written: not given here.

Tested on: cells
Test: MTT assay for cytotoxicity
Assay type: cell-based
Conditions: within a range of used concentrations; FIGS. 3a and 3b

Sequence | cytotoxicity
GQGFSYPYKAVFSTQ [BFP 1, Gly-Gln-Gly-Phe-Ser-Tyr-Pro-Tyr-Lys-Ala-Val-Phe-Ser-Thr-Gln] | neither BFP 1 nor BFP 2 are toxic to cells
VEHDKEFFHPRYHHR [BFP 2, Val-Glu-His-Asp-Lys-Glu-Phe-Phe-His-Pro-Arg-Tyr-His-His-Arg] | neither BFP 1 nor BFP 2 are toxic to cells
